Patent US8791118B2, “Pyridopyrazines as highly selective ras-Raf-Mek-Erk signal transduction pathway inhibitors” (Aeterna Zentaris GmbH, priority 2011, dated 2014)

Key:
Erk2 = Erk2 (Homo sapiens, UniProt P28482); test: Erk2 alpha kinase assay (cell-free, ALPHA technology); assay type: biochemical; settings: 10 μM ATP
Description: The inhibitory effect of the compounds according to the invention was tested on various serine/threonine, tyrosine and lipid kinases in enzymatic assays. Recombinant human kinases such as, for example, Erk2, were used in this case, partly as full-length kinases, partly as shortened fragments, but at least consisting of the functional kinase domains. The commercial kinase proteins (Proqinase, Upstate) were used as recombinant fusion proteins with GST (glutathion-S-transferase) or His-Tag. Depending on the type of substrate, the various kinase reactions were quantified by means of suitable ALPHA™ beads (Perkin-Elmer). The substance testing is described in detail hereinafter for the Erk assay. […] a) MAPK-ALPHAs (e.g. […] The fluorescence was detected the following morning in a Envision plate reader (Perkin-Elmer). The %-inhibition values per substance concentration were calculated by means of the following formula from the raw data determined in the Envision plate reader[…]: Eight determinations were made for each control and two for the substance samples. […] The IC50 values were determined using GraphPadPrism.

Hct116 = test: XTT assay for anti-proliferative effect; assay type: cell-based; settings: Homo sapiens, HCT-116; Hct116 tumour cell line, ~48 h incubation
Description: The principle of this test is based on the intracellular reduction of the tetrazolium dye XTT (sodium 3′-[1-(phenylaminocarbonyl)-3,4-tetrazolium]-bis(4-methoxy-6-nitro)benzene sulfonic acid, Sigma) to a formazan dye by mitochondrial dehydrogenases. The dye is only formed by metabolically active cells and its photometrically measurable intensity is a quantitative indicator for the presence of living cells. The reduction of dye formation by incubation of the cells with substances serves as a parameter for the anti-proliferative effect.
The tumour cell lines (ATCC) were injected into 96-well microtitre plates in a defined cell number (1250 cells/well for Hct116) and then incubated overnight in an incubator at 37° C., 5% CO2 and 95% air humidity. The test substances were prepared as stock solutions (10 mM) in DMSO. To determine the EC50 values the potential inhibitor substances were added to the cells in half-logarithmically graded dilutions, resulting in final concentrations of 1.58 nM-50 μM. The cell plates were then incubated for ˜48 h in an incubator at 37° C., 5% CO2 and 95% air humidity.
For the detection reaction the substrate XTT was mixed with PMS (N-Methyl dibenzopyrazine methylsulfate, Sigma) and added to the cells so that a final concentration of 325 μg XTT/ml and 2.5 μg PMS/ml was obtained. It was then incubated for 3 h at 37° C., 95% air humidity. The formazan salt formed by the cellular dehydrogenases could then be quantified by adsorption at 490 nm.
The % inhibition value was evaluated by means of the following formula from the values for the optical densities measured in each case at 490 nm:
Eight determinations were made for each control and two for the substance samples. The 0% control contains no cells, the 100% control (proliferation control) contains no test substance. The EC50 values were determined using GraphPadPrism.

Erk2, sequence (P28482 2-360 limits assumed): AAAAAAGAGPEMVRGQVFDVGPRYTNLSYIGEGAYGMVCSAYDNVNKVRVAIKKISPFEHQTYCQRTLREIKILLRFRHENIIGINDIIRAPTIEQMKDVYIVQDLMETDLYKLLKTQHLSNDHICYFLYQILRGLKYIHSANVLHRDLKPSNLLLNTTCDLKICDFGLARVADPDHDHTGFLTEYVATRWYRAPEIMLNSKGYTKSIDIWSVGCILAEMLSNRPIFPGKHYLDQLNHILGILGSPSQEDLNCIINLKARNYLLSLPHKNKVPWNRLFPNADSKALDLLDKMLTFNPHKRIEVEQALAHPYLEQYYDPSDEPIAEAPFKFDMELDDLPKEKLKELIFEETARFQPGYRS

| IC50 (Erk2) | melting point | EC50 (Hct116) | SMILES |
| --- | --- | --- | --- |
| 4 nM | 198 to 201 °C | 337 nM | Cn1cc(-c2cnc3ccc(NC(=O)NCCCCc4ccccc4)nc3n2)cn1 [Compound 155, 1-[3-(1-Methyl-1H-pyrazol-4-yl)-pyrido[2,3-b]pyrazin-6-yl]-3-(4-phenyl-butyl)-urea] |
| 1 nM | 231 to 232 °C | 844 nM | O=C(NCCCCc1ccccc1)Nc1ccc2ncc(-c3cn[nH]c3)nc2n1 [Compound 159, 1-(4-Phenyl-butyl)-3-[3-(1H-pyrazol-4-yl)-pyrido[2,3-b]pyrazin-6-yl]-urea] |
| 1 nM | 233 to 235 °C | 420 nM | O=C(NCCCCc1ccccc1)Nc1ccc2ncc(-c3ccc(O)cc3)nc2n1 [Compound 160, 1-[3-(4-Hydroxy-phenyl)-pyrido[2,3-b]pyrazin-6-yl]-3-(4-phenyl-butyl)-urea] |
| 2 nM | 204 to 208 °C | 557 nM | CC(CCCc1ccccc1)NC(=O)Nc1ccc2ncc(-c3cnn(C)c3)nc2n1 (stereo not shown) [Compound 164, 1-(1-Methyl-4-phenyl-butyl)-3-[3-(1-methyl-1H-pyrazol-4-yl)-pyrido[2,3-b]pyrazin-6-yl]-urea] |
| 3 nM |  | 903 nM | C[C@H](CCCc1ccccc1)NC(=O)Nc1ccc2ncc(-c3cnn(CCN4CCOCC4)c3)nc2n1 [Compound 168, 1-((R)-1-Methyl-4-phenyl-butyl)-3-{3-[1-(2-morpholin-4-yl-ethyl)-1H-pyrazol-4-yl]-pyrido[2,3-b]pyrazin-6-yl}-urea] |
| 3 nM | 208 to 210 °C | 563 nM | Cn1cc(-c2cnc3ccc(NC(=O)NCCCC(C)(C)c4ccccc4)nc3n2)cn1 [Compound 169, 1-(4-Methyl-4-phenyl-pentyl)-3-[3-(1-methyl-1H-pyrazol-4-yl)-pyrido[2,3-b]pyrazin-6-yl]-urea] |
| 4 nM | 185 to 188 °C | 149 nM | CCCn1cc(-c2cnc3ccc(NC(=O)N[C@H](C)CCCc4ccccc4)nc3n2)cn1 [Compound 170, 1-((R)-1-Methyl-4-phenyl-butyl)-3-[3-(1-propyl-1H-pyrazol-4-yl)-pyrido[2,3-b]pyrazin-6-yl]-urea] |
| 6 nM | 137 to 138 °C |  | COc1ccccc1-c1cnc2ccc(NC(=O)N[C@H](C)CCCc3ccccc3)nc2n1 [Compound 179, 1-[3-(2-Methoxy-phenyl)-pyrido[2,3-b]pyrazin-6-yl]-3-((R)-1-methyl-4-phenyl-butyl)-urea] |
| 4 nM | 261 °C (dec.) |  | C[C@H](CCCc1ccccc1)NC(=O)Nc1ccc2ncc(-c3cccc(C(=O)O)c3)nc2n1 [Compound 196, 3-{6-[3-((R)-1-Methyl-4-phenyl-butyl)-ureido]-pyrido[2,3-b]pyrazin-3-yl}-benzoic acid] |
| 5 nM | 230 to 232 °C |  | N[C@@H](Cc1ccc(-c2cnc3ccc(NC(=O)NCCCCc4ccccc4)nc3n2)cc1)C(=O)O [Compound 197, (S)-2-Amino-3-(4-{6-[3-(4-phenyl-butyl)-ureido]-pyrido[2,3-b]pyrazin-3-yl}-phenyl)-propionic acid] |
| 3 nM | 254 to 256 °C |  | O=C(NCCCCc1ccccc1)Nc1ccc2ncc(-c3cccc(C(=O)O)c3)nc2n1 [Compound 198, 3-{6-[3-(4-Phenyl-butyl)-ureido]-pyrido[2,3-b]pyrazin-3-yl}-benzoic acid] |
| 39 nM | 192 to 194 °C | 888 nM | O=C(NCCCCc1ccccc1)Nc1ccc2ncc(-c3ccc(OCCOCCO)cc3)nc2n1 [Compound 201, 1-(3-{4-[2-(2-Hydroxy-ethoxy)-ethoxy]-phenyl}-pyrido[2,3-b]pyrazin-6-yl)-3-(4-phenyl-butyl)-urea] |

| SMILES | IC50 (Erk2) | melting point | EC50 (Hct116) |
| --- | --- | --- | --- |
| O=C(NCCCCc1ccccc1)Nc1ccc2ncc(-c3ccc(OP(=O)(O)O)cc3)nc2n1 [Compound 165, Phosphoric acid mono-(4-{6-[3-(4-phenyl-butyl)-ureido]-pyrido[2,3-b]pyrazin-3-yl}-phenyl) ester] | 3 nM | 202 °C | 3190 nM |
